# Results: article PMC6467542 (Bioorganic & Medicinal Chemistry, 2019)
# Experiments:
# [1] = system: M. tb (strain H37Rv); experiment: MIC90 against replicating M.tb (MABA); assay type: cell-based, Mycobacterium tuberculosis; details: aerobic (replicating) conditions, 90% inhibition of growth; for MIC90: Mycobacterium tuberculosis
# [2] = system: M. tb (strain H37Rv); experiment: MIC90 against non-replicating M.tb (LORA); assay type: cell-based, Mycobacterium tuberculosis; details: for MIC90: Mycobacterium tuberculosis, H37RV, read-out: MIC90 LORA
# Procedure: In these assays, 1 is a potent inhibitor, with MICs of 0.08 and 0.12 µg/mL, respectively. Replacement of the naphthalene C-unit of 1 with various pyridyls produced analogues of considerably lower lipophilicity, with clogP values ranging from 6.89 down to 2.98.
# [3] = in vitro; details: human, microsomes
# [4] = in vitro; details: mouse, microsomes
# [5] = target: hERG potassium channel (Homo sapiens, UniProt Q12809); experiment: Inhibition of hERG potassium current (patch clamp electrophysiology); details: for hERG % inhibition at 3 µM: manual or (less accurate) QPatch assay; for hERG % inhibition at 1 µM: manual assay; for IC50: read-out: hERG IC50, manual patch clamp, 5-concentration dose-response
# [6] = mouse, in vivo
# hERG potassium channel, sequence (Q12809 whole entry): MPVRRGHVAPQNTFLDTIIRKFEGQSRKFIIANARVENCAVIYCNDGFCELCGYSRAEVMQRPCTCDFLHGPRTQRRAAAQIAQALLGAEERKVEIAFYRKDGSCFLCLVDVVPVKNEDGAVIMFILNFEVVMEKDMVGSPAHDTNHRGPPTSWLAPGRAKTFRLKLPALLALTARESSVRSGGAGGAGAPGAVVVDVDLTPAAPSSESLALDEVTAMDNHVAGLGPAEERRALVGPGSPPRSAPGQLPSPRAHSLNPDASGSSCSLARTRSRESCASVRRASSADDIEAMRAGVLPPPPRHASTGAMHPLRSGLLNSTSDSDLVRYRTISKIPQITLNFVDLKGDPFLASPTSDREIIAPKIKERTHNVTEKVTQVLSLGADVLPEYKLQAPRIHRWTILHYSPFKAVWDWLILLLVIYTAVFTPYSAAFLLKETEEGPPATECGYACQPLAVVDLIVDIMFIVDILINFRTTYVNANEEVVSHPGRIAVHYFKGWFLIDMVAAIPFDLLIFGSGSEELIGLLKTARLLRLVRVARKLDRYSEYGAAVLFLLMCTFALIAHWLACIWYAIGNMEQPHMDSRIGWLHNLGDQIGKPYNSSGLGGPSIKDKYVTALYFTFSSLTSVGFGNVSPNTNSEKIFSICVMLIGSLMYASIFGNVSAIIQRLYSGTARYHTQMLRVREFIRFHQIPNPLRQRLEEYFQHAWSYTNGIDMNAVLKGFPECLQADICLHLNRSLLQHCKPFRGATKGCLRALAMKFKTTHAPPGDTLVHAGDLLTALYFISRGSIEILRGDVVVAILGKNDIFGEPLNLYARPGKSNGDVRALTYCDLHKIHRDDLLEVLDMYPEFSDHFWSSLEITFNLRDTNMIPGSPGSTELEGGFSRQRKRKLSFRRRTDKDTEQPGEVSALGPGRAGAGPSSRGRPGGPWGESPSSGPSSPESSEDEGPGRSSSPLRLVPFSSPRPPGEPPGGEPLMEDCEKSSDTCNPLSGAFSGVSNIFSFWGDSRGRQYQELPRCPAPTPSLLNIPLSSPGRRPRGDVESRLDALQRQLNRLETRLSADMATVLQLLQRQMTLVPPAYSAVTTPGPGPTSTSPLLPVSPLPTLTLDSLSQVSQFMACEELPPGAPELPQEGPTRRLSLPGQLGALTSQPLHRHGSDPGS
Molecule,MIC90 [1] [µg/mL],MIC90 [2] [µg/mL],further results
"1-(7-bromo-3-methoxynaphthalen-2-yl)-1-(2,3-dimethoxyphenyl)-4-(dimethylamino)-2-(2,6-dimethylpyridin-4-yl)butan-2-ol [Compound 56]",–,–,"MIC90 MABA [1]: 0.04 µg/mL; MIC90 LORA ([2]; M.tb H37Rv, non-replicating conditions, 90% inhibition of growth): 0.07 µg/mL"
COc1cccc(C(c2cc3cc(Br)ccc3nc2OC)C(O)(CCN(C)C)c2cccc(C)n2)c1OC (stereo not shown) [Compound 2],0.4,0.13,–
COc1cccc(C(c2cc3cc(C#N)ccc3nc2OC)C(O)(CCN(C)C)c2cccc(C)n2)c1OC (stereo not shown) [Compound 3],4.1,1.9,–
COc1cccc(C(c2cc3cc(Br)ccc3nc2OC)C(O)(CCN(C)C)c2cccc(C)n2)c1F (stereo not shown) [Compound 4],0.29,2,microsomal CLint [3]: 10 µL/min/mg; microsomal CLint [4]: 39 µL/min/mg; hERG % inhibition at 3 µM [5]: 34%/3
COc1cccc(C(c2cc3cc(C#N)ccc3nc2OC)C(O)(CCN(C)C)c2cccc(C)n2)c1F (stereo not shown) [Compound 5],1.1,1.8,–
COc1cccc(C(c2cc3cc(Br)ccc3nc2OC)C(O)(CCN(C)C)c2cc(C)ccn2)c1F (stereo not shown) [Compound 6],0.6,2.1,–
COc1cccc(C(c2cc3cc(Br)ccc3nc2OC)C(O)(CCN(C)C)c2ncccc2C)c1F (stereo not shown) [Compound 7],0.19,0.4,–
COc1cccc(C(c2cc3cc(C#N)ccc3nc2OC)C(O)(CCN(C)C)c2ncccc2C)c1F (stereo not shown) [Compound 8],3,3.5,–
COc1cccc(C(c2cc3cc(Br)ccc3nc2OC)C(O)(CCN(C)C)c2cc(C)cc(C)n2)c1OC (stereo not shown) [Compound 9],0.28,0.3,–
COc1cccc(C(c2cc3cc(C#N)ccc3nc2OC)C(O)(CCN(C)C)c2cc(C)cc(C)n2)c1OC (stereo not shown) [Compound 10],0.54,0.62,–
COc1cccc(C(c2cc3cc(Br)ccc3nc2OC)C(O)(CCN(C)C)c2cc(C)cc(C)n2)c1F (stereo not shown) [Compound 11],0.14,0.11,–
COc1cccc(C(c2cc3cc(C#N)ccc3nc2OC)C(O)(CCN(C)C)c2cc(C)cc(C)n2)c1F (stereo not shown) [Compound 12],2.3,2.8,–
COc1cccc(C(c2cc3cc(Br)ccc3nc2OC)C(O)(CCN(C)C)c2ncc(C)cc2C)c1F (stereo not shown) [Compound 13],0.3,0.46,–
COc1cccc(C(O)(CCN(C)C)C(c2cccc(C)c2)c2cc3cc(C#N)ccc3nc2OC)n1 (stereo not shown) [Compound 14],0.6,0.29,–
COc1cccc(C(O)(CCN(C)C)C(c2cc3cc(C#N)ccc3nc2OC)c2cccc3c2OCO3)n1 (stereo not shown) [Compound 16],1.2,–,–
COc1ccnc(C(O)(CCN(C)C)C(c2cc3cc(Br)ccc3nc2OC)c2cccc(OC)c2F)c1 (stereo not shown) [Compound 17],1.2,0.61,–
COc1ccnc(C(O)(CCN(C)C)C(c2cc3cc(C#N)ccc3nc2OC)c2cccc(OC)c2F)c1 (stereo not shown) [Compound 18],2.3,2.2,–
COc1cccc(C(c2cc3cc(Br)ccc3nc2OC)C(O)(CCN(C)C)c2cccnc2C)c1OC (stereo not shown) [Compound 20],0.3,0.59,–
COc1nc2ccc(Br)cc2cc1C(c1cccc2c1OCO2)C(O)(CCN(C)C)c1cccnc1C (stereo not shown) [Compound 21],0.45,0.56,"AUC: exposure, AUCinf [6]: 820 ng·h/mL; IV Cl: IV clearance [6]: 44 mL/min/kg; Vz: IV apparent volume of distribution during terminal phase [6]: 21 L/kg; F: oral bioavailability [6]: 19%; microsomal CLint [3]: 71 µL/min/mg; microsomal CLint [4]: 51 µL/min/mg; hERG % inhibition at 3 µM [5]: 13%/3"
COc1cccc(C(c2cc3cc(C#N)ccc3nc2OC)C(O)(CCN(C)C)c2ccc(C)nc2)c1F (stereo not shown) [Compound 23],4.7,> 5,–
COc1cccc(C(c2cc3cc(Br)ccc3nc2OC)C(O)(CCN(C)C)c2ccc(C)nc2)c1OC (stereo not shown) [Compound 24],0.6,0.51,–
COc1cccc(C(c2cc3cc(C#N)ccc3nc2OC)C(O)(CCN(C)C)c2ccc(C)nc2)c1OC (stereo not shown) [Compound 25],> 5,–,–
COc1nc2ccc(Br)cc2cc1C(c1cccc(F)c1)C(O)(CCN(C)C)c1cncc(C)c1 (stereo not shown) [Compound 26],0.28,0.08,–
COc1nc2ccc(C#N)cc2cc1C(c1cccc(F)c1)C(O)(CCN(C)C)c1cncc(C)c1 (stereo not shown) [Compound 27],1.2,0.98,microsomal CLint [3]: 122 µL/min/mg; microsomal CLint [4]: 249 µL/min/mg; hERG % inhibition at 1 µM [5]: 42%/1

Molecule,MIC90 [1] [µg/mL],MIC90 [2] [µg/mL],further results
COc1cccc(C(c2cc3cc(Br)ccc3nc2OC)C(O)(CCN(C)C)c2cncc(C)c2)c1OC (stereo not shown) [Compound 28],0.3,0.57,–
COc1cccc(C(c2cc3cc(C#N)ccc3nc2OC)C(O)(CCN(C)C)c2cncc(C)c2)c1OC (stereo not shown) [Compound 29],4.2,3.8,–
COc1cccc(C(c2cc3cc(Br)ccc3nc2OC)C(O)(CCN(C)C)c2cncc(C)c2)c1F (stereo not shown) [Compound 30],0.16,0.2,–
COc1cccc(C(c2cc3cc(C#N)ccc3nc2OC)C(O)(CCN(C)C)c2cncc(C)c2)c1F (stereo not shown) [Compound 31],3.3,2.5,–
COc1cccc(C(c2cc3cc(Br)ccc3nc2OC)C(O)(CCN(C)C)c2cc(C)cnc2C)c1F (stereo not shown) [Compound 32],0.07,0.23,–
COc1cccc(C(c2cc3cc(Br)ccc3nc2OC)C(O)(CCN(C)C)c2cnc(C)c(C)c2)c1OC (stereo not shown) [Compound 34],0.07,0.14,–
COc1cccc(C(c2cc3cc(Br)ccc3nc2OC)C(O)(CCN(C)C)c2cnc(C)c(C)c2)c1F (stereo not shown) [Compound 35],0.31,0.29,–
COc1cccc(C(c2cc3cc(C#N)ccc3nc2OC)C(O)(CCN(C)C)c2cnc(C)c(C)c2)c1F (stereo not shown) [Compound 36],2.4,3.3,–
COc1cccc(C(c2cc3cc(Br)ccc3nc2OC)C(O)(CCN(C)C)c2cnc(C)cc2C)c1F (stereo not shown) [Compound 37],0.53,0.29,–
COc1nc2ccc(C#N)cc2cc1C(c1cccc2c1OCO2)C(O)(CCN(C)C)c1cccnc1OC (stereo not shown) [Compound 42],2.1,–,–
COc1ccc(C(O)(CCN(C)C)C(c2cc3cc(Br)ccc3nc2OC)c2cccc(OC)c2OC)cn1 (stereo not shown) [Compound 43],0.28,0.54,–
COc1ccc(C(O)(CCN(C)C)C(c2cc3cc(C#N)ccc3nc2OC)c2cccc(OC)c2OC)cn1 (stereo not shown) [Compound 44],2.1,–,–
COc1ccc(C(O)(CCN(C)C)C(c2cc3cc(Br)ccc3nc2OC)c2cccc(OC)c2F)cn1 (stereo not shown) [Compound 45],0.12,0.08,–
COc1cnc(OC)c(C(O)(CCN(C)C)C(c2cc3cc(Br)ccc3nc2OC)c2cccc(OC)c2F)c1 (stereo not shown) [Compound 46],0.09,0.04,microsomal CLint [3]: 7 µL/min/mg; microsomal CLint [4]: 53 µL/min/mg; IC50 [5]: 2900 nM
COc1cc(C(O)(CCN(C)C)C(c2cc3cc(Br)ccc3nc2OC)c2cccc(OC)c2F)cnc1OC (stereo not shown) [Compound 47],0.07,0.11,–
COc1cc(C(O)(CCN(C)C)C(c2cc3cc(Br)ccc3nc2OC)c2ccnc(OC)c2OC)c(OC)nc1OC (stereo not shown) [Compound 49],0.57,1.4,"AUC: exposure, AUCinf [6]: 9130 ng·h/mL; IV Cl: IV clearance [6]: 10 mL/min/kg; Vz: IV apparent volume of distribution during terminal phase [6]: 12 L/kg; F: oral bioavailability [6]: 52%; microsomal CLint [3]: 5 µL/min/mg; microsomal CLint [4]: 7 µL/min/mg; IC50 [5]: 2700 nM"
COc1cccc(C(c2cc3cc(Br)ccc3nc2OC)C(O)(CCN(C)C)c2ccncc2C)c1F (stereo not shown) [Compound 50],1,1.1,–
COc1cccc(C(c2cc3cc(Br)ccc3nc2OC)C(O)(CCN(C)C)c2ccnc(C)c2)c1F (stereo not shown) [Compound 51],0.47,0.58,–
COc1cccc(C(c2cc3cc(C#N)ccc3nc2OC)C(O)(CCN(C)C)c2ccnc(C)c2)c1F (stereo not shown) [Compound 52],> 5,3.8,–
COc1nc2ccc(Br)cc2cc1C(c1cccc(C)c1)C(O)(CCN(C)C)c1cc(C)nc(C)c1 (stereo not shown) [Compound 53],0.11,0.49,–
COc1cccc(C(c2cc3cc(Br)ccc3nc2OC)C(O)(CCN(C)C)c2cc(C)nc(C)c2)c1F (stereo not shown) [Compound 54],0.11,0.3,–
CCc1cc(C(O)(CCN(C)C)C(c2cc3cc(Br)ccc3nc2OC)c2cccc(OC)c2F)cc(CC)n1 (stereo not shown) [Compound 58],0.03,0.21,microsomal CLint [3]: 8 µL/min/mg; microsomal CLint [4]: 20 µL/min/mg; hERG % inhibition at 3 µM [5]: 63%/3
CCc1cc(C(O)(CCN(C)C)C(c2cc3cc(C#N)ccc3nc2OC)c2cccc(OC)c2F)cc(CC)n1 (stereo not shown) [Compound 59],0.19,0.28,microsomal CLint [3]: 10 µL/min/mg; microsomal CLint [4]: 27 µL/min/mg; hERG % inhibition at 1 µM [5]: 48%/1
COc1cc(C(O)(CCN(C)C)C(c2cc3cc(Br)ccc3nc2OC)c2cccc(OC)c2F)c(OC)cn1 (stereo not shown) [Compound 60],0.11,0.12,microsomal CLint [3]: 7 µL/min/mg; microsomal CLint [4]: 25 µL/min/mg; IC50 [5]: 1700 nM
